Measurements from patent US10357036B2, “Compounds for controlling arthropods” (priority 2015, dated 2019).
“And” between values parts separate entries of the source, which are not always exact repeats. Equal entries are not always repeated.

Tests used:
Phaedon cochleariae = Phaedon cochleariae spray test; details: 100 g/ha; after 7 days
Ctenocephalides felis [1] = assay: Ctenocephalides felis oral test; type: in vivo; details: 100 ppm in citrated cattle blood; after 2 days
Protocol: • Solvent: Dimethyl Sulfoxide
To produce a suitable active ingredient formulation, 10 mg of active ingredient are mixed with 0.5 ml of dimethyl sulfoxide. Dilution with citrated cattle blood gives the desired concentration.
About 20 unfed adult cat fleas (Ctenocephalides fells) are placed into a chamber which is closed at the top and bottom with gauze. A metal cylinder whose bottom end is closed with parafilm is placed onto the chamber. The cylinder contains the blood/active ingredient formulation, which can be imbibed by the fleas through the parafilm membrane.

Boophilus microplus = Boophilus microplus injection test; type: in vivo; details: 20 μg/animal; assessed after 7 days
Protocol: (§1) • Solvent: dimethyl sulfoxide
1 μl of the active ingredient solution is injected into the abdomen of 5 engorged adult female cattle ticks (Boophilus microplus). The animals are transferred into dishes and kept in a climate-controlled room.

Spodoptera frugiperda = Spodoptera frugiperda spray test; type: in vivo; details: 100 g/ha; after 7 days
Tetranychus urticae = Tetranychus urticae spray test, OP-resistant (bean leaf discs); type: in vivo; details: 100 g/ha; after 6 days
Protocol: After 6 days, the efficacy in % is determined.

Musca domestica = Musca domestica test; type: in vivo; details: 100 ppm; adult houseflies; after 2 days
Protocol: as §1
To produce a suitable active ingredient formulation, 10 mg of active ingredient are mixed with 0.5 ml of dimethyl sulfoxide, and the concentrate is diluted with water to the desired concentration.
Vessels containing a sponge treated with sugar solution and the active ingredient formulation of the desired concentration are populated with 10 adult houseflies (Musca domestica).

Ctenocephalides felis [2] = assay: Ctenocephalides felis in vitro contact test with adult cat fleas; type: in vivo; details: application rate 5 μg/cm^2 (=500 g/ha); after 48 h; dead or moribund fleas
Protocol: (§2) For the coating of the test tubes, 9 mg of active ingredient are first dissolved in 1 ml of acetone p.a. and then diluted to the desired concentration with acetone p.a. 250 μl of the solution are distributed homogeneously on the inner walls and the base of a 25 ml glass tube by turning and rocking on an orbital shaker (rocking rotation at 30 rpm for 2 h). With 900 ppm of active ingredient solution and internal surface area 44.7 cm^2, given homogeneous distribution, an area-based dose of 5 μg/cm^2 is achieved.
After the solvent has evaporated off, the tubes are populated with 5-10 adult cat fleas (Ctenocephalides felis), sealed with a perforated plastic lid and incubated in a horizontal position at room temperature and ambient humidity. After 48 h, efficacy is determined. To this end, the tubes are stood upright and the fleas are knocked to the base of the tube. Fleas which remain motionless at the base or move in an uncoordinated manner are considered to be dead or moribund.
100% efficacy means that all the fleas were dead or moribund. 0% efficacy means that no fleas were harmed.

Rhipicephalus sanguineus = Rhipicephalus sanguineus in vitro contact test with adult brown dog ticks; type: in vivo; details: application rate 5 μg/cm^2 (=500 g/ha); after 48 h; dead or moribund ticks
Protocol: as §2
After the solvent has evaporated off, the tubes are populated with 5-10 adult dog ticks (Rhipicephalus sanguineus), sealed with a perforated plastic lid and incubated in a horizontal position in the dark at room temperature and ambient humidity. After 48 h, efficacy is determined. To this end, the ticks are knocked to the base of the tube and incubated on a hotplate at 45-50° C. for not more than 5 min. Ticks which remain motionless on the base or move in such an uncoordinated manner that they are unable to deliberately avoid the heat by climbing upwards are considered to be dead or moribund.
An efficacy of 100% means that all the ticks were dead or moribund. 0% efficacy means that none of the ticks were harmed.

Row | Compound | efficacy (Phaedon cochleariae) [%] | efficacy (rate of extermination) (Ctenocephalides felis [1]) [%] | efficacy (laying of fertile eggs) (Boophilus microplus) [%] | efficacy (Spodoptera frugiperda) [%] | efficacy (Tetranychus urticae) | efficacy (rate of extermination) (Musca domestica) [%] | efficacy (Ctenocephalides felis [2]) [%] | efficacy (Rhipicephalus sanguineus) [%]
1 | CC(=O)N(C)Cc1cc(-c2cnn(-c3c(Cl)cc(C(F)(C(F)(F)F)C(F)(F)F)cc3Cl)c2)cnc1Cl [Ia-73] | 100 | 100 | 100 | 100 | 100% and 90% | 100 | 100 | 
2 | CC(=O)N(C)Cc1cc(-c2cnn(-c3c(Cl)cc(C(F)(C(F)(F)F)C(F)(F)F)cc3Cl)c2)ccc1F [Ia-64] | 100 | 100 | 100 | 100 | 100% | 100 | 100 | 
3 | CC(=O)NCc1cc(-c2cnn(-c3c(Cl)cc(C(F)(C(F)(F)F)C(F)(F)F)cc3OC(F)(F)F)c2)cnc1Cl [Ia-131] | 100 | 100 | 100 | 100 |  | 100 | 100 | 
4 | CC(=O)NCc1cc(-c2cnn(-c3c(Cl)cc(C(F)(C(F)(F)F)C(F)(F)F)cc3Cl)c2)cnc1Cl [Ia-130] | 100 | 100 | 100 | 100 | 90% | 100 | 100 | 
5 | CCOCN(Cc1cc(-c2cnn(-c3c(Cl)cc(C(F)(C(F)(F)F)C(F)(F)F)cc3Cl)c2)ccc1Cl)C(C)=O [Ia-117] | 100 | 100 | 100 | 100 |  | 100 | 100 | 
6 | O=C(CC(F)(F)F)NCc1cc(-c2cnn(-c3c(Cl)cc(C(F)(C(F)(F)F)C(F)(F)F)cc3OC(F)(F)F)c2)ccc1F [Ia-19] | 100 | 100 | 100 | 100 | 90% | 100 |  | 100
7 | CCC(=O)NC1CCc2ccc(-c3cnn(-c4c(Cl)cc(C(F)(C(F)(F)F)C(F)(F)F)cc4C(F)(F)F)c3)cc21 (centres unmarked) [I-Tc-02] |  | 100 | 100 | 100 |  |  |  | 80
8 | CCC(=O)NCc1cccc(-c2cnn(-c3c(Cl)cc(C(F)(C(F)(F)F)C(F)(F)F)cc3C(F)(F)F)c2)c1F [Ia-150] | 100 | 100 | 100 | 100 | 90% | 100 |  | 
9 | CCC(=O)NCc1cc(-c2cnn(-c3c(Cl)cc(C(F)(C(F)(F)F)C(F)(F)F)cc3C(F)(F)F)c2)ccc1Cl [Ia-29] | 100 | 100 | 100 | 100 |  | 100 |  | 100
10 | CS(=O)(=O)NCc1cc(-c2cnn(-c3c(Cl)cc(C(F)(C(F)(F)F)C(F)(F)F)cc3Cl)c2)ccc1Cl [Ic-01] | 100 | 100 | 100 | 100 | 100% | 90 |  | 
11 | CCC(=O)NCc1c(F)ccc(-c2cnn(-c3c(Cl)cc(C(F)(C(F)(F)F)C(F)(F)F)cc3C(F)(F)F)c2)c1F [Ia-146] | 100 | 100 | 100 | 100 |  | 100 |  | 100
12 | O=C(NCc1cc(-c2cnn(-c3c(Cl)cc(C(F)(C(F)(F)F)C(F)(F)F)cc3OC(F)(F)F)c2)ccc1F)C1CC1 [Ia-40] | 100 | 100 | 100 | 100 |  | 100 |  | 80
13 | CSc1cc(C(F)(C(F)(F)F)C(F)(F)F)cc(Cl)c1-n1cc(-c2ccc(F)c(CNC(=O)C3CC3)c2)cn1 [Ia-12] | 100 | 100 | 100 | 83 | 100% | 100 |  | 
14 | CCCCC(=O)NCc1cc(-c2cnn(-c3c(Cl)cc(C(F)(C(F)(F)F)C(F)(F)F)cc3C(F)F)c2)ccc1F [Ia-59] | 100 | 100 | 100 | 100 | 100% | 100 |  | 
15 | CCC(=O)NCc1cc(-c2cnn(-c3c(Cl)cc(C(F)(C(F)(F)F)C(F)(F)F)cc3OC(F)(F)F)c2)ccc1F [Ia-26] | 100 | 100 | 100 | 100 | 90% | 100 |  | 80
16 | Cc1cc(C(F)(C(F)(F)F)C(F)(F)F)cc(C)c1-n1cc(-c2ccc(F)c(CNC(=O)C3CC3)c2)cn1 [Ia-04] | 100 | 100 | 100 | 100 | 100% | 100 |  | 100
17 | CCC(=O)NCc1c(F)ccc(-c2cnn(-c3c(Cl)cc(C(F)(C(F)(F)F)C(F)(F)F)cc3OC(F)F)c2)c1F [Ia-157] | 100 | 100 | 100 | 100 | 90% | 100 |  | 100
18 | CC(=O)NCc1cccc(-c2cnn(-c3c(C)cc(C(F)(C(F)(F)F)C(F)(F)F)cc3Cl)c2)c1 [Ia-68] | 100 | 100 | 100 | 83 | 100% | 100 |  | 80
19 | N-(2-chloro-5-{1-[2,6-dichloro-4-(1,1,1,2,3,3,3-heptafluoropropan-2-yl)phenyl]-1H-pyrazol-4-yl}benzyl)-N-methylpropanamide [Ia-22] | 100 | 100 | 100 |  | 90% |  |  | 80
20 | CCC(=O)NCc1cccc(-c2cnn(-c3c(Cl)cc(C(F)(C(F)(F)F)C(F)(F)F)cc3C(F)F)c2)c1F [Ia-143] | 100 | 100 | 100 | 100 |  | 100 |  | 80
21 | CC(=O)NCc1cccc(-c2cnn(-c3c(Cl)cc(C(F)(C(F)(F)F)C(F)(F)F)cc3C(F)F)c2)c1 [Ia-02] | 100 | 100 | 100 | 100 | 100% | 100 |  | 
22 | CC(=O)NCc1cccc(-c2cnn(-c3c(Cl)cc(C(F)(C(F)(F)F)C(F)(F)F)cc3C(F)F)c2)c1F [Ia-144] | 100 | 100 | 100 | 100 | 90% | 100 |  | 
23 | CC(=O)NCc1cccc(-c2cnn(-c3c(Cl)cc(C(F)(C(F)(F)F)C(F)(F)F)cc3OC(F)(F)F)c2)c1 [Ia-38] | 100 | 100 | 100 | 100 |  | 100 |  | 80
